Measured values taken from patent US5225411A, “Disubstituted polymethyleneimines” (priority 1990, dated 1993).

How the values were obtained:
[1] = system: Chinese Hamster Pulmonary Line DC-3F/AD; experiment: Increase in the cytotoxicity of actinomycin D on the Chinese hamster pulmonary line DC-3F/AD; format: cell-based; conditions: 4 days;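 further: DC-3F/AD is an extremely resistant cell line whose resistance factor exceeds 10,000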
Source text: The cytotoxic agent used was actinomycin D.
Line DC-3F/AD is an extremely resistant line. Its resistance factor is higher than 10,000.

[2] = system: murine leukaemia P 388/ADR 10; experiment: Evaluation of the increase in cytotoxicity of adriamycin on the line P 388/ADR-10 in vitro (reversion factor); format: cell-based; conditions: adriamycin, P 388/ADR-10, 48 h, TOX = toxic
Experimental: In this study, the cytotoxicity of adriamycin was measured in the absence and in the presence of the reversing compound.
The compounds tested for their capacity to reverse MDR are added at the same time as the cytotoxic agent. The cells are then incubated for 48 hours.

line P 388/ADR 10 = experiment: Flow cytometry, increase in fluorescence of ADR on the line P 388/ADR 10; format: cell-based, murine; conditions: ADR 50 μM, 5 h
Experimental: (§1) By measuring that fluorescence it is possible to obtain a relative measurement of the intracellular concentration of ADR.
(§2) […] After 5 hours' incubation, the intracellular uptake of adriamycin was evaluated by FCM.
(§3) The analysis of each of the samples was carried out on a total of 10,000 cells at a speed of 1000 cells/sec.
(§4) The results were presented in the form of linear histograms of the intracellular ADR fluorescence.
(§5) Expression of the Results
(§6) For each of the histograms, the channel mean fluorescence was determined by the apparatus information system. For all experiments:
(§7) A negative control (cells without ADR) fixed the autofluorescence threshold.
(§8) A positive control (cells with ADR) determined the MEAN value=MN1.
(§9) The "test" tubes (cells with ADR and with compound) were used to determine, for each of the compounds and at each of the concentrations, the MEAN values=MN2.
(§10) The results are expressed in the form of variations from the mean fluorescence obtained for each of the "test" tubes (MN2) in relation to the mean fluorescence obtained with the […] (MNl) : VAR-MEAN=MN2 -MN1. The parameter expressed is thus the increase in the fluorescence of adriamycin in the presence of the tested compounds.

line DC-3F/AD = experiment: Flow cytometry, increase in fluorescence of ADR on the line DC-3F/AD; format: cell-based, Chinese Hamster; conditions: ADR 50 μM, 5 h
Experimental: as §1, §2, §3, §4, §5, §6, §7, §8, §9, §10

Compound | Reversion Factor (RF) ([1]; compound 5 μM) | Reversion Factor (RF) ([1]; compound 10 μM) | Reversion Factor (RF) ([1]; compound 20 μM) | Reversion Factor (RF) ([2]; compound 5 μM) | Reversion Factor (RF) ([2]; compound 10 μM) | Increase in fluorescence of ADR (VAR-MEAN = MN2 - MN1) (line P 388/ADR 10; compound 2 μM) | Increase in fluorescence of ADR (VAR-MEAN = MN2 - MN1) (line P 388/ADR 10; compound 5 μM) | Increase in fluorescence of ADR (VAR-MEAN = MN2 - MN1) (line P 388/ADR 10; compound 10 μM) | Increase in fluorescence of ADR (VAR-MEAN = MN2 - MN1) (line P 388/ADR 10; compound 20 μM) | Increase in fluorescence of ADR (VAR-MEAN = MN2 - MN1) (line DC-3F/AD; compound 2 μM) | Increase in fluorescence of ADR (VAR-MEAN = MN2 - MN1) (line DC-3F/AD; compound 5 μM) | Increase in fluorescence of ADR (VAR-MEAN = MN2 - MN1) (line DC-3F/AD; compound 10 μM) | Increase in fluorescence of ADR (VAR-MEAN = MN2 - MN1) (line DC-3F/AD; compound 20 μM) | Reversion Factor (RF) ([2]; compound 2.5 μM) | Reversion Factor (RF) ([1]; compound 2.5 μM)
CC(=O)[C@H]1CC[C@H]2[C@@H]3CCC4=CC(=O)CC[C@]4(C)[C@H]3CC[C@]12C [PROGESTERONE] | < 10 | < 10 | 13 | 1.7 | 2.5 | 1.85 | 1.00 | 6.85 | 11.80 | – | – | – | – | – | –
CN1CCN(CCCN2c3ccccc3Sc3ccc(C(F)(F)F)cc32)CC1 [TRIFLUOPERAZINE] | < 12 | 38 | TOX | – | – | 11.45 | 14.75 | 34.55 | 51.05 | 0.00 | 0.00 | 4.10 | 13.40 | – | –
COC(=O)[C@@H]1[C@H]2C[C@H]3c4[nH]c5ccccc5c4CCN3C[C@@H]2CC[C@@H]1O [YOHIMBINE] | < 12 | < 12 | < 12 | – | – | 2.30 | 0.05 | 4.70 | 3.45 | – | – | – | – | – | –
C=C[C@H]1C[N@@]2CC[C@H]1C[C@@H]2[C@@H](O)c1ccnc2ccc(OC)cc12 [QUINIDINE] | < 12 | < 12 | < 12 | 6 | 17.4 | 6.65 | 12.80 | 22.00 | 29.90 | – | – | – | – | – | –
CN(C)CCCN1c2ccccc2Sc2ccc(Cl)cc21 [CHLOROPROMAZINE] | < 13 | < 12 | < 13 | – | – | 3.30 | 5.15 | 4.60 | 6.20 | – | – | – | – | – | –
C=CCNc1nc(NCC=C)nc(N2CCC(SCCC(c3ccccc3)c3ccccc3)CC2)n1 [Example 2, 1-[4,6-bis(allylamino)-2-s-triazinyl]-4-(3,3-diphenylpropylthio)piperidine] | 17 | 171 | – | 65.1 | 86.4 | – | – | – | – | 0.2 | 10.4 | 25.1 | 35.0 | 15.4 | –
COc1ccc(CCN(C)CCCC(C#N)(c2ccc(OC)c(OC)c2)C(C)C)cc1OC (stereo not drawn) [reference compound] | – | – | – | – | – | 9.89 | 21.90 | 39.62 | 56.50 | 2.00 | 2.60 | 7.55 | 11.45 | – | –
c1ccc2c(c1)Nc1ccccc1S2 [PHENOTHIAZINE] | < 12 | < 12 | < 12 | 23.1 | – | 0.00 | 0.00 | 0.00 | 0.00 | – | – | – | – | 9.4 | –
C=C[C@H]1C[N@@]2CC[C@H]1C[C@H]2[C@H](O)c1ccnc2ccc(OC)cc12 [QUININE] | < 10 | < 10 | < 11 | – | 14.5 | 4.85 | 5.40 | 12.00 | 18.90 | – | – | – | – | – | –
C=CCNc1nc(NCC=C)nc(N2CCC(NCCC(c3ccc(OC)c(OC)c3)c3ccc(OC)c(OC)c3)CC2)n1 [Example 12, 1-[4,6-bis(allylamino)-2-s-triazinyl]-4-[3,3-bis(3,4-dimethoxyphenyl)propylamino]piperidine] | < 16.5 | < 16.5 | – | 8 | TOX | – | – | – | – | 6.1 | 3.8 | 5.5 | 9.6 | 1.4 | –
COC(=O)C1=C(C)NC(C)=C(C(=O)OC)C1c1ccccc1[N+](=O)[O-] [NIFEDIPINE] | – | – | – | – | – | 0.00 | 0.80 | 5.95 | 3.40 | – | – | – | – | – | –
CCN(CC)CCCC(C)Nc1c2ccc(Cl)cc2nc2ccc(OC)cc12 (stereo not drawn) [QUINACRINE] | < 13 | < 12 | TOX | – | – | 11.83 | 15.73 | 27.73 | 52.77 | 2.00 | 10.5 | 19.1 | 25.8 | – | –
C=CCNc1nc(NCCC)nc(NC2CCN(CC(c3ccccc3)c3ccccc3)CC2)n1 [Example 11, 4-(4-allylamino-6-propylamino-2-s-triazinylamino)-1-(2,2-diphenylethyl)piperidine] | 281 | 926 | – | 65.2 | TOX | – | – | – | – | 12.6 | 18.9 | 29.9 | 40.5 | 87 | –
O=c1[nH]c2ccccc2n1C1CCN(CCCC(c2ccc(F)cc2)c2ccc(F)cc2)CC1 [PIMOZIDE] | 28 | 78 | TOX | – | – | 25.60 | 49.42 | 73.13 | 73.64 | 5.85 | 8.85 | 15.65 | 21.60 | – | < 10
Fc1ccc(C(c2ccc(F)cc2)N2CCN(C/C=C/c3ccccc3)CC2)cc1 [FLUNARIZINE] | < 13 | 16 | TOX | – | 25 | 7.35 | 10.10 | 19.90 | 41.00 | – | – | – | – | – | –
OCCN(CCO)c1nc(N2CCCCC2)c2nc(N(CCO)CCO)nc(N3CCCCC3)c2n1 [DIPYRIDAMOLE] | < 12 | < 11 | < 12 | – | – | 2.35 | 7.55 | 21.75 | 40.00 | – | – | – | – | – | –
COc1ccc([C@@H]2Sc3ccccc3N(CCN(C)C)C(=O)[C@@H]2OC(C)=O)cc1 [DILTIAZEM] | < 11 | < 10 | < 11 | – | – | 3.10 | 6.65 | 13.45 | 23.15 | – | – | – | – | – | –
